Type in all cases: in vivo
Data set [1] has as its system Haemonchus contortus. Kind of data set: Haemonchus contortus larvacidal (larval development) assay. The conditions noted are these: 144 h, read-out: Haemonchus contortus LD99. A digest of the protocol: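 Nematode eggs placed on agar containing compound (12 two-fold dilutions, final 0.024–50 μg/ml) and left 6 days to develop to L3. LD99 is the lowest concentration inhibiting development of 99% of larvae, derived from well titre (2^n−1) and top concentration.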

Data set [2] relates to Brown Dog Tick (Rhipicephalus sanguineus). The data set can be described thus: Rapid screening protocol for topical application on brown dog ticks. The conditions noted are these: 48 h; Laboratory 2 F data.
Data set [3] has the same test system. Kind of data set: Dose response protocol for topical application on brown dog ticks (LD50). The conditions noted are these: 24 h mortality. How it is done:
e) Dose response protocol for topical application on brown dog ticks (Rhipicephalus sanguineus): The test determines the level of insecticidal activity of sample compounds or formulations when applied topically on brown dog ticks. Sample compounds were stored prior to use in a freezer (−5±1° C.), unless otherwise specified.
• Mortality: A tick is defined as dead after it gives no apparent response when touched lightly or gently breathed upon, while observed for 30 seconds. • LD50 (Lethal Dose 50): The dose of a topically applied treatment at which 50% of the dog ticks are killed. • Reference compound: To assess an experimental compound for significant acaricidal activity a single dose level is chosen, which is based upon known results from previous experiments using a commercially available active i.e., a reference compound. The reference compound selected is one in common use, and one that has a similar mode of action against the Brown Dog Tick (i.e., the test species). • Recovery container: A recovery container consists of a 500 ml round plastic container measuring 115 mm diameter and 70 mm height, with a tight fitting lid that has 10 small (˜1 mm) holes inserted for air exchange. A 90 mm diameter piece of filter paper was placed on the bottom of the container and moistened with 1 mL of de-stilled water.
Adult, mixed sex, Brown Dog Ticks (Rhipicephalus sanguineus) were reared as follows: (i) cultured, (ii) transferred unfed, to a testing laboratory, and (iii) then maintained under controlled conditions (i.e., temp. 18°±2° C., humidity 75±5% RH). The ticks used were selected for vigor prior to testing, i.e., capable of actively walking and responsive to being touched or gently breathed upon.
During the testing, the temperature was maintained at 25±1° C., and the humidity was ambient. Seven dose levels (concentrations) of sample compound, in the form of serial dilutions in acetone, were derived from a pilot study and covered a range that produced very low to very high mortality. Groups of ten ticks were treated topically (on the abdomen) with 1 μL of a single dose level of the sample compound. Each test was replicated four times, i.e., employing a total of 40 ticks per dose level of each sample compound. As a control, ten ticks were treated with solvent only (acetone) for each test. Following the treatment, the ticks were held in recovery containers maintained under appropriate rearing conditions for 24 hours. Mortality resulting from the treatments was recorded at 24 hours. […] Press, London (1971).]

Data set [4] relates to cat flea (Ctenocephalides felis). The data set can be described thus: whole plant or invertebrate. To be noted: Ctenocephalides felis, Laboratory 1 A data. A digest of the protocol:
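Single-dose screen at 1.26 μg/cm^2: acetone solution dried for 24 h on a Coatasil-treated 159 mm^2 flask base, then 15 adult cat fleas aged 3-7 days per flask, four or more replicates, acetone control. Percent dead, meaning not moving or unable to right themselves, recorded after 8, 24 and/or 48 h at 25 °C and 75% RH.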

[5] abbreviates: 8 h, read-out: C. felis Mortality (%) 8 h, 8 h.
Where [6] appears, read: 24 h, read-out: C. felis Mortality (%) 24 h, 24 h.

Where two headings read alike, the source gives them in different places.

Turning to `CC/C(=N\OCc1ccc(Cl)cc1)c1cc(Cl)ccc1NS(=O)(=O)C(F)(F)F` [Compound 11, N-{4-chloro-2-[1-(4-chlorobenzyloxyimino)propyl]phenyl}trifluoromethanesulfonamide], in data set [1], the IC99 was 0.7 µg/mL. Moreover, the “R. sanguineus Mortality (%) 48 h” value in data set [2] was found to be 97%. Also, the “R. sanguineus LD50” value in data set [3] is on record as 2.5 μg/tick. The mortality at 1.26 µg/cm2, 1.26 µg/cm2 turned out to be 87% in data set [4] (setting [5]) and 100% in data set [4] (setting [6]).

For the compound `CC/C(=N\OCc1ccc(C(F)(F)F)cc1)c1cc(Cl)ccc1NS(=O)(=O)C(F)(F)F` [Compound 9], the IC99 in data set [1] was determined as 0.6 µg/mL. In addition, the “R. sanguineus Mortality (%) 48 h” value in data set [2] came out at 95%. Further, in data set [3], the “R. sanguineus LD50” value was 2.7 μg/tick. The values for the mortality at 1.26 µg/cm2, 1.26 µg/cm2 in data set [4] (setting [5]) and in data set [4] (setting [6]) were 86% and 98%, respectively.

The values above are taken from patent US7312248B2, “Control of parasites in animals by the use of novel trifluoromethanesulfonanilide oxime ether derivatives” (Schering-Plough Animal Health Corporation, priority 2004, dated 2007).
